Columns and labels:
Assay in all cases: KAM-matrix competition in K562 lysate;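 as to 0.001 uM KAM: median log10 fold change of treatment over DMSO control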;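 as to 0.01 uM KAM: median log10 fold change of treatment over DMSO control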;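 as to 0.1 uM KAM: median log10 fold change of treatment over DMSO control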;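 as to 1 uM KAM: median log10 fold change of treatment over DMSO control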;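 as to 10 uM KAM: median log10 fold change of treatment over DMSO control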
Format in all cases: binding
CDK10 = target: T1, CDK10 (Homo sapiens, UniProt Q15131)
T1 construct: endogenous in cells; host or cells: K562
T1 sequence (Q15131 whole entry): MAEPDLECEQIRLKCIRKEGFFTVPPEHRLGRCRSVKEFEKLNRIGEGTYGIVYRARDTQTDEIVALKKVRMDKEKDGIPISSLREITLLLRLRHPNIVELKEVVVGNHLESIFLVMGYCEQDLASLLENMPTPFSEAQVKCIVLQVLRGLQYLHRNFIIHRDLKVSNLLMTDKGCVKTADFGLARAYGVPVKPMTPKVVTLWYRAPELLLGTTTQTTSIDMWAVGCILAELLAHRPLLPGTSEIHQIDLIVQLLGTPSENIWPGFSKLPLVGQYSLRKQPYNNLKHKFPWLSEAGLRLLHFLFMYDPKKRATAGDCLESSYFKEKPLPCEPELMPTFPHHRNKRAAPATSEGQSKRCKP
Procedure: (§1) Supplement 12953_2017_125_MOESM1_ESM.zip/MS_Supp Info.xlsx, sheet "KAM" | column: 10 uM KAM; 1 uM KAM; 0.1 uM KAM; 0.01 uM KAM; 0.001 uM KAM; RB50

DAPK1 = target: T2, DAPK1 (Homo sapiens, UniProt P53355);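 as to 0.001 uM KAM: median log10 fold change of treatment over DMSO control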;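 as to 0.01 uM KAM: median log10 fold change of treatment over DMSO control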;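 as to 0.1 uM KAM: median log10 fold change of treatment over DMSO control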;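 as to 1 uM KAM: median log10 fold change of treatment over DMSO control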;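 as to 10 uM KAM: median log10 fold change of treatment over DMSO control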
T2 construct: endogenous in cells; host or cells: K562
T2 sequence (P53355 whole entry): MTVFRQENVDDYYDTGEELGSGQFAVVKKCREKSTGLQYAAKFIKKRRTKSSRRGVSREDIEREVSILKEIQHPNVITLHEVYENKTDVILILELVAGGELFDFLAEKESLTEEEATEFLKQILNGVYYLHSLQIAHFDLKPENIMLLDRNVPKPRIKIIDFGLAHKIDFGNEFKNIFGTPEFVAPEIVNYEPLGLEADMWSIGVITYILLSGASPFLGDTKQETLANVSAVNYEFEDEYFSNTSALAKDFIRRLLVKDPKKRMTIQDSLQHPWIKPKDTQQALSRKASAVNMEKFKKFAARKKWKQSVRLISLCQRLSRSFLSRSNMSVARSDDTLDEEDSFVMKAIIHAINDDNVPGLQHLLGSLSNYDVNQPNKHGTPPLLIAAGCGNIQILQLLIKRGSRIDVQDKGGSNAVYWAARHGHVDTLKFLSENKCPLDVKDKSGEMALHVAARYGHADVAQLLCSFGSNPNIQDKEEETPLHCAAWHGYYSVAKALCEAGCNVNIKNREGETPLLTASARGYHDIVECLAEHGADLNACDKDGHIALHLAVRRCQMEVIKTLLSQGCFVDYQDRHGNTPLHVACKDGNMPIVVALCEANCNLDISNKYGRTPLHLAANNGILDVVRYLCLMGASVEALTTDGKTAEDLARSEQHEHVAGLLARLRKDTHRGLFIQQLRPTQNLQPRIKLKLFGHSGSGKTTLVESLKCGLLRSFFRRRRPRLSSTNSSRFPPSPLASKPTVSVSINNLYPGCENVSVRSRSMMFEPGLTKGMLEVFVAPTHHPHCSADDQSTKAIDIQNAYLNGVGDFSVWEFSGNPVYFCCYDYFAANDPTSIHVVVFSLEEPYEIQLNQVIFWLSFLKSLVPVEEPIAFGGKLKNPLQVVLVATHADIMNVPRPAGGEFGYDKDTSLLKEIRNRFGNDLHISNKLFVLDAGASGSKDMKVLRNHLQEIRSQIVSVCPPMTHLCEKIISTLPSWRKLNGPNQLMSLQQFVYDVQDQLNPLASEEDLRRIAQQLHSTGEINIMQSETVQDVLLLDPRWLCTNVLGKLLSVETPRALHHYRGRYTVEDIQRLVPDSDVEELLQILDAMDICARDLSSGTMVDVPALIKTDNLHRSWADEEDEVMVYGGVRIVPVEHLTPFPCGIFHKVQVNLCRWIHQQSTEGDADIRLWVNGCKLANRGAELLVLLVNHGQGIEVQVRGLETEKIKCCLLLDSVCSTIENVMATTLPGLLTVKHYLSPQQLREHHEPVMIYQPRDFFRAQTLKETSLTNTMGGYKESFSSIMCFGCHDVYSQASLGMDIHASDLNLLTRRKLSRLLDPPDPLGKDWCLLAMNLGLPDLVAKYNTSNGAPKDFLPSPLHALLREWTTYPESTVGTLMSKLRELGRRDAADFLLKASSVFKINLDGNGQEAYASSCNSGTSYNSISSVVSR
Procedure: as §1

MAP3K1 = target: T3, MAP3K1 (Homo sapiens, UniProt Q13233)
T3 construct: endogenous in cells; host or cells: K562 cell lysate
T3 sequence (Q13233 whole entry): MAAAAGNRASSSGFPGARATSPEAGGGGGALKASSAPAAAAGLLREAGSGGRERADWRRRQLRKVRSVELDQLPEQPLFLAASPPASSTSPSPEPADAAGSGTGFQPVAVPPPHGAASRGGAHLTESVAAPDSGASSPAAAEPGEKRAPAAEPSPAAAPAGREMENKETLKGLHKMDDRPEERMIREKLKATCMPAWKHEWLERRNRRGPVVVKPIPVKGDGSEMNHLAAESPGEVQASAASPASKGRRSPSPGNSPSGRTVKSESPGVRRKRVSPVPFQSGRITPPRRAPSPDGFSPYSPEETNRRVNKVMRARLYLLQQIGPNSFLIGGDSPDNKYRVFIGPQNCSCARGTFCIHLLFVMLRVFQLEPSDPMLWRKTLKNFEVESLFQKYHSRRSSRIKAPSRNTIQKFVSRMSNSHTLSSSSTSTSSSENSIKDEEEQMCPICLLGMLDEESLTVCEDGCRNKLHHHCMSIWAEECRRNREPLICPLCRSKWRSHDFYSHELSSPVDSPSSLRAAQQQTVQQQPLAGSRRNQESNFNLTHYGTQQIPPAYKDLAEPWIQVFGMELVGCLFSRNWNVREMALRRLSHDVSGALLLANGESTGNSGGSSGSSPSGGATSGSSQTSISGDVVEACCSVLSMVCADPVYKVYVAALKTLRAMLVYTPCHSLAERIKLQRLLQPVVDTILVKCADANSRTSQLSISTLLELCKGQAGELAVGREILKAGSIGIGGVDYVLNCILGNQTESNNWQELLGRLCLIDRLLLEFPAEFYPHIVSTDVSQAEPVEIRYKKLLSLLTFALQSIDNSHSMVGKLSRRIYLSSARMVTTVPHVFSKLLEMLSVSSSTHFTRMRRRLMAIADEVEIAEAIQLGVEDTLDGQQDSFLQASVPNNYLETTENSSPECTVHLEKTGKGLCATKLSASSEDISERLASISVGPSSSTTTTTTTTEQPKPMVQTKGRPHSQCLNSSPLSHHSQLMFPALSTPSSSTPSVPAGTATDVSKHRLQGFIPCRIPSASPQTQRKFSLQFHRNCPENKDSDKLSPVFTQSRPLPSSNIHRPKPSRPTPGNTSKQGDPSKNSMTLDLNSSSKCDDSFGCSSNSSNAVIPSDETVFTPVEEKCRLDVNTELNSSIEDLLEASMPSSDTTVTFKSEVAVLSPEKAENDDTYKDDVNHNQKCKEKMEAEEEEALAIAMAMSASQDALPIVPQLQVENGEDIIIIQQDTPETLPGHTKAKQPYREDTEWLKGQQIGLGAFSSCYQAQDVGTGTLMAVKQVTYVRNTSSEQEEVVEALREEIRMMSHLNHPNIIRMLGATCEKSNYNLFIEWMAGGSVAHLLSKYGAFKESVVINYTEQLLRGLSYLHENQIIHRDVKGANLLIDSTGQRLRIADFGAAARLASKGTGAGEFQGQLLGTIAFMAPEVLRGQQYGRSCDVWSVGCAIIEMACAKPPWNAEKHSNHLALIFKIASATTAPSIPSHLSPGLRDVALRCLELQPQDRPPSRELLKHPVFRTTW
Procedure: as §1

MARK4 = target: T4, MARK4 (Homo sapiens, UniProt Q96L34)
T4 construct: K562 cell pellets were thawed on ice and resuspended in cold Lysis buffer; endogenous in cells; host or cells: K562
T4 sequence (Q96L34 1-752): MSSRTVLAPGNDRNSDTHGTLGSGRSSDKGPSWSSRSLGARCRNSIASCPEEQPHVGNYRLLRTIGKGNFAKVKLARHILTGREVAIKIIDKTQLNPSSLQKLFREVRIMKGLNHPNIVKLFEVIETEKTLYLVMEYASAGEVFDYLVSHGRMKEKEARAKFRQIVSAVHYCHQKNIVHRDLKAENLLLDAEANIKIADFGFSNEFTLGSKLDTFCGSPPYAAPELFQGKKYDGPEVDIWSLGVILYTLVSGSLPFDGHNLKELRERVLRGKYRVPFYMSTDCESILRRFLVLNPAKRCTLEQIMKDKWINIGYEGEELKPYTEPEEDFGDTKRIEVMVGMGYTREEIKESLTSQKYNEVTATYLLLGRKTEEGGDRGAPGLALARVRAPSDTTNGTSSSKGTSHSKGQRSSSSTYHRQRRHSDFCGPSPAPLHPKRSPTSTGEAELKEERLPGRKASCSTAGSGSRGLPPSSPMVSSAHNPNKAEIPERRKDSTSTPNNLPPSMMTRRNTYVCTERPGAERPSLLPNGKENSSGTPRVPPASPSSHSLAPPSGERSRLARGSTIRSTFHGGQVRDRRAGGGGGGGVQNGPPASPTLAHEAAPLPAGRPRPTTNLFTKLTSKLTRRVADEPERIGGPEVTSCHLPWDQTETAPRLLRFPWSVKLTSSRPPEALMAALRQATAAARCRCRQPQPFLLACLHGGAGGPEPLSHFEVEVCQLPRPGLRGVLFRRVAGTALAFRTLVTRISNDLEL
Procedure: as §1

MERTK = target: T5, MERTK (Homo sapiens, UniProt Q12866);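 as to 0.001 uM KAM: median log10 fold change of treatment over DMSO control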;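 as to 0.01 uM KAM: median log10 fold change of treatment over DMSO control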;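 as to 0.1 uM KAM: median log10 fold change of treatment over DMSO control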;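 as to 1 uM KAM: median log10 fold change of treatment over DMSO control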;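 as to 10 uM KAM: median log10 fold change of treatment over DMSO control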
T5 construct: endogenous in cells; host or cells: K562
T5 sequence (Q12866 21-999): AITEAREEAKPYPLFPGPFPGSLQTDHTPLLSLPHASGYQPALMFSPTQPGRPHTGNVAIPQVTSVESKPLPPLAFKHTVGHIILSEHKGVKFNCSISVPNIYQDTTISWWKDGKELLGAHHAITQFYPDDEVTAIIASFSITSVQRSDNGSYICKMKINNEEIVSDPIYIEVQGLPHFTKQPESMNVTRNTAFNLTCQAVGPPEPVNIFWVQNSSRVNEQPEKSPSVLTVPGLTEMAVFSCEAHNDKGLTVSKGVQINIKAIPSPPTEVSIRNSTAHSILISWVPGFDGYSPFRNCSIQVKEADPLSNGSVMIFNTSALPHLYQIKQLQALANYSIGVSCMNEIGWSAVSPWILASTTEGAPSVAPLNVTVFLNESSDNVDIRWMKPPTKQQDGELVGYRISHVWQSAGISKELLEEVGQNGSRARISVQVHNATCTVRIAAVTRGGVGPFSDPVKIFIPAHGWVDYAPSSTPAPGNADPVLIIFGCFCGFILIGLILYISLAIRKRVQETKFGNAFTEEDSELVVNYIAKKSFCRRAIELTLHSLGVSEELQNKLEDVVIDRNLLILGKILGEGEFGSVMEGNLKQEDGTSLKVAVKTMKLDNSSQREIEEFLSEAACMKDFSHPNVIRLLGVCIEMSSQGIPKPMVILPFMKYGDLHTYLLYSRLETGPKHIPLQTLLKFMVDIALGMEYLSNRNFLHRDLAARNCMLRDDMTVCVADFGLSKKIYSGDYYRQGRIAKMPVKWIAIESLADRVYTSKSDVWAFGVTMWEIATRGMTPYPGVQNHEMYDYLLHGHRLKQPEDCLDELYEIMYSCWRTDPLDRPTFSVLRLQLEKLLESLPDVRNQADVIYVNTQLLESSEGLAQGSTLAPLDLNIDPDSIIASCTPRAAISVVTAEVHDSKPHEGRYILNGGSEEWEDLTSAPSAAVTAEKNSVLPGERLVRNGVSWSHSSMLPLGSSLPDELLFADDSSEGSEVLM
Procedure: as §1

PHKG1 = target: T6, PHKG1 (Homo sapiens, UniProt Q16816)
T6 construct: endogenous in cells; host or cells: K562
T6 sequence (Q16816 whole entry): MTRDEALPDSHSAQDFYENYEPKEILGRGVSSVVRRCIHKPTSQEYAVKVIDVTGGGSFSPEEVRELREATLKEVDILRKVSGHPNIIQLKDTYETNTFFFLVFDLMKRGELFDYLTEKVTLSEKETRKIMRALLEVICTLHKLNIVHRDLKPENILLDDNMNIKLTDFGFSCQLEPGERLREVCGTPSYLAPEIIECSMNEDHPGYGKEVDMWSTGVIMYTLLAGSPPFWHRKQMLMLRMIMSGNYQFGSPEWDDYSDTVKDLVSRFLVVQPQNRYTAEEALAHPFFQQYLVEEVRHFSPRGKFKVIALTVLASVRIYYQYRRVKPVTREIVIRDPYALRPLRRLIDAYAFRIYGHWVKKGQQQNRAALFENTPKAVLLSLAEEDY
Procedure: as §1

[1] = read-out: RB50 (the source's name)
[2] = KAM 0.001-10 uM, read-out: RB50 (the source's name)

With `N#CCc1ccc(Nc2nc(NCCCN)cc(Nc3cc(C4CC4)[nH]n3)n2)cc1` [KAM] the “median Log10 fold change” value (CDK10; 0.001 uM KAM) was 0.01311, the “median Log10 fold change” value (CDK10; 0.01 uM KAM) was -0.05132 and the “median Log10 fold change” value (CDK10; 0.1 uM KAM) was -0.3516. For the same compound, the “median Log10 fold change” value (CDK10; 1 uM KAM) was -0.4253, the “median Log10 fold change” value (CDK10; 10 uM KAM) was -0.3533 and the IC50 (CDK10; [1]) was 130 nM. The IC50 (DAPK1; [2]) was greater than 10000 nM, the “0.001 uM KAM” value (DAPK1; relative to 0 uM KAM = 0) was -0.04615 and the “0.01 uM KAM” value (DAPK1; relative to 0 uM KAM = 0) was 0.02037. The “0.1 uM KAM” value (DAPK1; relative to 0 uM KAM = 0) was -0.07451, the “1 uM KAM” value (DAPK1; relative to 0 uM KAM = 0) was -0.06277 and the “10 uM KAM” value (DAPK1; relative to 0 uM KAM = 0) was -0.09328. For the same compound, the “median Log10 fold change” value (MAP3K1; 0.001 uM KAM) was -0.0387, the “median Log10 fold change” value (MAP3K1; 0.01 uM KAM) was -0.001908 and the “median Log10 fold change” value (MAP3K1; 0.1 uM KAM) was -0.0773. For the same compound, the “median Log10 fold change” value (MAP3K1; 1 uM KAM) was -0.1722, the “median Log10 fold change” value (MAP3K1; 10 uM KAM) was -0.3697 and the IC50 (MAP3K1; [1]) was 4530 nM. For the same compound, the “median Log10 fold change” value (MARK4; 0.001 uM KAM) was -0.09809, the “median Log10 fold change” value (MARK4; 0.01 uM KAM) was -0.06359 and the “median Log10 fold change” value (MARK4; 0.1 uM KAM) was -0.2055. The “median Log10 fold change” value (MARK4; 1 uM KAM) was -0.3566, the “median Log10 fold change” value (MARK4; 10 uM KAM) was -0.4457 and the IC50 (MARK4; [1]) was 604 nM. The IC50 (MERTK; [2]) was greater than 10000 nM, the “0.001 uM KAM” value (MERTK; relative to 0 uM KAM = 0) was -0.05728 and the “0.01 uM KAM” value (MERTK; relative to 0 uM KAM = 0) was -0.0237. The “0.1 uM KAM” value (MERTK; relative to 0 uM KAM = 0) was -0.04893, the “1 uM KAM” value (MERTK; relative to 0 uM KAM = 0) was -0.1208 and the “10 uM KAM” value (MERTK; relative to 0 uM KAM = 0) was -0.2454. The “median Log10 fold change” value (PHKG1; 0.001 uM KAM) was -0.0673, the “median Log10 fold change” value (PHKG1; 0.01 uM KAM) was -0.04082 and the “median Log10 fold change” value (PHKG1; 0.1 uM KAM) was -0.2109. The “median Log10 fold change” value (PHKG1; 1 uM KAM) was -0.4403, the “median Log10 fold change” value (PHKG1; 10 uM KAM) was -0.5431 and the IC50 (PHKG1; [1]) was 329 nM.
